Assay results: EP4671239A1, “ARYL SUBSTITUENT-CONTAINING DEGRADATION AGENT FOR CDK12/13, PREPARATION METHOD THEREFOR, AND PHARMACEUTICAL COMPOSITION AND USE THEREOF” (Shanghai Institute of Organic Chemistry, Chinese Academy of …, priority 2023, dated 2024)
Like-named read-outs stand apart in the source and are kept apart here.

What was measured:
[1] = test system: CDK12 and CDK13 proteins; experiment: Degradation activity on CDK12/13 in 22RV1 cells (Western Blot); type: cell-based; details: 22RV1 cells
Description: Experimental methods: The cell line, 22RV1 cell line was purchased from the American Type Culture Collection (ATCC). Conventional Western Blot was used for detection as follows: 22RV1 cells were seeded in a certain number in a 12-well plate, and cultured overnight in an incubator in an adherent manner. […] The cells were lysed with a lysis buffer, and samples were collected. Then, an appropriate amount of the samples was taken for SDS-PAGE electrophoresis. After electrophoresis, the proteins were transferred to nitrocellulose membranes using a semi-dry electro-transfer system. The nitrocellulose membrane was placed in a blocking solution (5% skim milk powder diluted in TBS containing 0.1% Tween 20) and blocked at room temperature for 2 h. The membranes were then placed in a primary antibody solution (1: 1000 diluted in TBS containing 0.1% Tween 20), respectively, and incubated at 4°C overnight. The cells were washed three times with TBS containing 0.1% Tween 20, each time for 15 min. The membrane was placed in a secondary antibody solution (horseradish peroxidase-labeled goat anti-rabbit IgG, diluted at 1:1000 in TBS containing 0.1% Tween 20) and reacted at room temperature for 1 h. After washing the membrane three times as above, the membrane was developed with ECL plus reagent and photographed using Amersham Imager 600 system.

[2] = Pharmacokinetics and bioavailability test in rats (Example 60); type: in vivo; details: SD rats
Description: (§1) Pharmacokinetics and bioavailability tests in rats. SD rats were given a single oral (10 mg/kg), intravenous (2.5 mg/kg) and intraperitoneal (10 mg/kg) dose, followed by animal blood sample collection at appropriate time points. Heparin was added for anticoagulation, and the samples were centrifuged at 8000 rpm for 6 min. The supernatant was collected and stored at -20°C for HPLC-MS analysis. The blood samples underwent protein precipitation with acetonitrile at 12 000 rpm * 10 min, and the supernatant was used for HPCL-MS analysis. The data underwent parameter fitting with DAS2.0, to obtain compartmental model and non-compartmental model parameters, respectively. The oral bioavailability of the compounds was calculated based on the area under the plasma concentration-time curve (AUC) data. […] Table 2. Pharmacokinetic experimental results of compounds YJZ9069 and YJZ1102

[3] = test system: phosphorylation of serine at position 2 (phoSer2) of the C-terminal domain of RNA polymeraseII (RNA Pol II); experiment: Phosphorylation of Ser2 of the RNA Pol II C-terminal domain in 22RV1 cells (Western Blot); type: cell-based; details: different concentrations (FIG. 4B)
Description: Experimental methods: The cell line, 22RV1 cell line was purchased from the American Type Culture Collection (ATCC). Conventional Western Blot was used for detection as follows: 22RV1 cells were seeded in a certain number in a 12-well plate, and cultured overnight in an incubator in an adherent manner. Then, a certain concentration of compounds was added to act for 6 hours. The cells were lysed with a lysis buffer, and samples were collected. Then, an appropriate amount of the samples was taken for SDS-PAGE electrophoresis. After electrophoresis, the proteins were transferred to nitrocellulose membranes using a semi-dry electro-transfer system. The nitrocellulose membrane was placed in a blocking solution (5% skim milk powder diluted in TBS containing 0.1% Tween 20) and blocked at room temperature for 2 h. The membranes were then placed in a primary antibody solution (1: 1000 diluted in TBS containing 0.1% Tween 20), respectively, and incubated at 4°C overnight. The cells were washed three times with TBS containing 0.1% Tween 20, each time for 15 min. The membrane was placed in a secondary antibody solution (horseradish peroxidase-labeled goat anti-rabbit IgG, diluted at 1:1000 in TBS containing 0.1% Tween 20) and reacted at room temperature for 1 h. […]

[4] = Pharmacokinetics and bioavailability test in rats (Example 57); type: in vivo; details: SD rats; for AUC(0-inf) / Tmax / MRT last / MRT inf: rat, plasma; for MRT last: read-out: MRT(0-t); for MRT inf: read-out: MRT(0-∞)
Description: as §1, with “Table 1.” for “Table 2.”, “of compound zlc-4-93” for “of compounds YJZ9069 and YJZ1102”

[5] = test system: CDK12 and CDK13 proteins; experiment: Degradation activity on CDK12/13 in MDA-MB-231 cells (Western Blot); type: cell-based; details: WB (FIG. 2A)
[6] = test system: Cyclin K; experiment: Degradation of partner protein Cyclin K in MDA-MB-231 cells (Western Blot); type: cell-based; details: for time dependence of degradation of Cyclin K: WB (FIG. 2); for degradation of Cyclin K protein: after 15 hours
Description: (§2) Experimental methods: The cell line MDA-MB-231 was purchased from the American Type Culture Collection (ATCC). Conventional Western Blot was used for detection, as follows: MDA-MB-231 cells were seeded at a density of 2 x 10^5/mL in a 12-well plate, with 1 mL per well, and cultured overnight in an incubator in an adherent manner. Then, a certain concentration of compounds was added to act for 15 h. The cells were lysed with a lysis buffer, and protein samples were collected. An appropriate amount of the sample was taken for SDS-PAGE electrophoresis. After electrophoresis, the protein was transferred to a polyvinylidene fluoride (PVDF) membrane using a wet electro-transfer system. The PVDF membrane after electro-transfer was cut into several required strips, which were then placed in a blocking solution (5% skim milk powder diluted in TBS containing 0.1% Tween 20) and blocked at room temperature for 1.5 h. A primary antibody solution was prepared by diluting a primary antibody against the corresponding target protein in TBS containing 0.1% Tween 20 according to the dilution requirements of different antibodies, such as 1:1000 (CST), 1:3000 (Proteintech, Bethyl), and 1:200 (Santacruz). The blocked membrane was placed in the corresponding primary antibody solution and incubated at 4°C for 12-14 h. Then, the cells were washed three times with TBS containing 0.1% Tween 20, each time for 5 min. After washing, the membrane was placed in a secondary antibody solution (horseradish peroxidase-labeled goat anti-rabbit IgG, diluted at 1:2000 in TBS containing 0.1% Tween 20) and reacted at room temperature for 2 h. After washing the membrane three times as above, the membrane was developed with StarSignal plus reagent (GenStar®) and Omni-ECL reagent (Yazyme®), and photographed with Amersham Imager 800 system.

[7] = test system: triple negative breast cancer cells MDA-MB-231; experiment: Proliferation-inhibiting activity on MDA-MB-231 cells (Cell Counting Kit-8); type: cell-based; details: Homo sapiens, 120 h; MDA-MB-231 cell line, 5 days, cck-8 (FIG. 3)
Description: The cell proliferation-inhibiting activity of the compounds was determined using Cell Counting Kit-8 Cell Viability Assay (Selleck.cn). The cells were seeded into a 384-well plate (CORNING® PS 3701) containing the corresponding culture medium and incubated in an incubator at 37°C with 5% CO2. After overnight incubation, a high-concentration stock solution of each compound to be tested was prepared; the compound was added to the 384-well plate according to a concentration gradient using an Echo® 650 Liquid Handler (LABCYTE®). After administration, the cell plate was placed in an incubator at 37°C with 5% CO2 and incubated for 5 days. Then, 5 µL of cck-8 reagent was added to each well of the 384-well plate using MULTIDROP® (Thermo Scientific™), and the plate was returned to the incubator for incubation for 1.5-2 h. After incubation, the plate was removed and centrifuged to remove bubbles. The absorbance of each well at 450 nm and 650 nm was obtained using EnVision® (PerkinElmer®). GraphPad Prism software (GraphPad Software Inc.) was used to process and analyze the data.

[8] = test system: CDK12 and CDK13 proteins; experiment: Degradation activity on CDK12/13 in MDA-MB-231 cells (Western Blot); type: cell-based; details: for degradation of CDK12 and CDK13 protein levels in cells: 0.1µM or 0.3µM, 15 h, WB (FIG. 1); for degradation of CDK12 and CDK13 proteins: 1 µM, 15 hours
Description: as §2

Q: For `O=C1CCC(N2C(=O)c3cccc(OCC(=O)N4CCN(c5ccc(N(C(=O)NCc6ccccc6)[C@H]6CC[C@H](Nc7ncc8ccccc8n7)CC6)cc5)CC4)c3C2=O)C(=O)N1` (stereo partly drawn) [YJZ9069], which “degradation of CDK12 and CDK13 proteins” value ([1]; 100 nM, 6 h (FIG. 5)) is on record?
A: The value was “almost completely degrade”.

Q: What about the “degradation of CDK12 and CDK13 proteins” value ([1]; 0.5 µM, 15 hours) of the same molecule?
A: Its value is “almost completely degraded”.

Q: What about the “degradation of CDK12 and CDK13 protein levels in cells” value (“degradation … in cells” below) ([1]; 500 nM, 6 hours, WB (FIG. 4)) of the same molecule?
A: Its value is “effectively degrade”.

Q: What about the “dose dependence of degradation of CDK12 and CDK13 proteins” value ([1]; different concentrations, 6 h (FIG. 4B, FIG. 5)) of the same molecule?
A: The value was “dose-dependent manner”.

Q: And the F ([2]; PO 10 mg/kg, bioavailability calculated from AUC)?
A: Its F is 5.04%.

Q: And the Cmax ([2]; rat, in vivo, IV 2.5 mg/kg)?
A: Its Cmax is 3510 ng/mL.

Q: What about the Tmax ([2]; rat, in vivo, IV 2.5 mg/kg) of the same molecule?
A: Its Tmax is 0.08 h.

Q: What about the clearance ([2]; rat, in vivo, IV 2.5 mg/kg) of the same molecule?
A: The clearance was 14.1 mL/min/kg.

Q: What about the half-life ([2]; rat, in vivo, IV 2.5 mg/kg) of the same molecule?
A: The half-life was 4.39 h.

Q: And the Cmax ([2]; rat, in vivo, PO 10 mg/kg)?
A: Its Cmax is 121 ng/mL.

Q: What about the Tmax ([2]; rat, in vivo, PO 10 mg/kg) of the same molecule?
A: Its Tmax is 4 h.

Q: What about the “phosphorylation of serine at position 2 (phoSer2) of RNA Pol II CTD” value [3] of the same molecule?
A: Its value is “inhibited in a dose-dependent manner”.

Q: Which F ([4]; Oral 10 mg/kg, bioavailability calculated from AUC) does the source give for `N#Cc1ccc(N[C@H]2CC[C@H](N(C(=O)NCc3ccccc3)c3ccc(N4CCN(C5CCN(c6cc7c(cc6F)C(=O)N(C6CCC(=O)NC6=O)C7=O)CC5)CC4)cc3)CC2)nc1` (stereo partly drawn) [ZLC4-91] here?
A: The F was 46.80%.

Q: What about the oral pharmacokinetic properties ([4]; summary in words of Table 1) of the same molecule?
A: The oral pharmacokinetic properties was “excellent”.

Q: What about the AUC(0-inf) ([4]; iv, i.v. 2.5 mg/kg) of the same molecule?
A: The AUC(0-inf) was 6880 ng·h/mL.

Q: And the Tmax ([4]; iv, i.v. 2.5 mg/kg)?
A: The Tmax was 0.08 h.

Q: What about the MRT last ([4]; iv, i.v. 2.5 mg/kg) of the same molecule?
A: The MRT last was 2.2 h.

Q: What about the MRT inf ([4]; iv, i.v. 2.5 mg/kg) of the same molecule?
A: The MRT inf was 2.32 h.

Q: What about the AUC(0-inf) ([4]; Oral 10 mg/kg) of the same molecule?
A: Its AUC(0-inf) is 12800 ng·h/mL.

Q: What about the Tmax ([4]; Oral 10 mg/kg) of the same molecule?
A: The Tmax was 4.67 h.

Q: And the MRT last ([4]; Oral 10 mg/kg)?
A: The MRT last was 6.09 h.

Q: What about the MRT inf ([4]; Oral 10 mg/kg) of the same molecule?
A: Its MRT inf is 6.21 h.

Q: And the “time dependence of degradation of CDK12 and CDK13 proteins” value [5]?
A: The value was “time-dependent manner”.

Q: What about the “time dependence of degradation of Cyclin K” value [6] of the same molecule?
A: The value was “time-dependent degradation effect”.

Q: And the “degradation of Cyclin K protein” value [6]?
A: The value was “almost completely degraded”.

Q: And the IC50 [7]?
A: Its IC50 is 0.623 µM.

Q: What about the “degradation … in cells” value [8] of the same molecule?
A: The value was “effectively degrade”.

Q: What about the “degradation of CDK12 and CDK13 proteins” value [8] of the same molecule?
A: Its value is “almost completely degraded”.

Q: Which “time dependence of degradation of CDK12 and CDK13 proteins” value [5] does the source give for `N#Cc1ccc(N[C@H]2CC[C@H](N(C(=O)NCc3ccccc3)c3ccc(N4CCC(N5CCN(c6ccc7c(c6)C(=O)N(C6CCC(=O)NC6=O)C7=O)CC5)CC4)cc3)CC2)nc1` (stereo partly drawn) [ZLC5-11] here?
A: Its value is “time-dependent manner”.

Q: And the “time dependence of degradation of Cyclin K” value [6]?
A: The value was “time-dependent degradation effect”.

Q: And the “degradation of Cyclin K protein” value [6]?
A: Its value is “almost completely degraded”.

Q: What about the “degradation … in cells” value [8] of the same molecule?
A: Its value is “effectively degrade”.

Q: And the “degradation of CDK12 and CDK13 proteins” value [8]?
A: Its value is “almost completely degraded”.
